Laboratory results taken from PubChem BioAssay AID2039 (NMMLSC, 2009).
pEC50, pKi: −log10 of the molar value. Activity calls are given as the source filed them. How the calls were made is not given here.

Target: Ras-related C3 botulinum toxin substrate 1 (Homo sapiens) (UniProt P63000)
Experiment: activated mutant Rac1 GTP binding inhibitors, SAR follow-up, biochemical, additional analogs, multiplex bead flow cytometry (AID 2039)
Details: Multiplex flow cytometry bead GTP-binding assay; for pKi: measured here: Ki for Rac1 nucleotide binding

**Q.** Which EC50 does the source give for `CSc1ccc(/C=C2/C(C)=C(CC(=O)O)c3cc(F)ccc32)cc1` here?
**A.** Its EC50 is “inactive”.

**Q.** And the pKi?
**A.** Its pKi is 5.31.

**Q.** For `O=C1C(c2c(O)[nH]c3ccc(Br)cc23)=Nc2ccccc21`, which EC50 is on record?
**A.** Its EC50 is “inactive”.

**Q.** And the pKi?
**A.** Its pKi is 5.95.

**Q.** `O=C(C#Cc1ccccc1)c1ccccc1` was tested. Which EC50 did it give?
**A.** The EC50 was “inactive”.

**Q.** With `CC(C(=O)O)c1cccc(Oc2ccccc2)c1` (configuration not stated) as the compound, how does the EC50 read?
**A.** Its EC50 is “inactive”.

**Q.** For `COc1ccc2cc(CC(=O)O)ccc2c1`, which EC50 is on record?
**A.** The EC50 was “inactive”.

**Q.** For `O=Nc1c(-c2c(O)[nH]c3ccc(Br)cc23)[nH]c2ccccc12`, which EC50 is on record?
**A.** Its EC50 is “inactive”.

**Q.** What about the pKi of the same compound?
**A.** Its pKi is 5.53.

**Q.** `O=C1C(c2c(O)[nH]c3c(F)cccc23)=Nc2ccccc21` was tested. Which EC50 did it give?
**A.** The EC50 was “inactive”.

**Q.** For `O=C1C(c2c(O)[nH]c3c(Cl)cccc23)=Nc2ccccc21`, which EC50 is on record?
**A.** Its EC50 is “inactive”.

**Q.** Which EC50 does the source give for `O=C1C(c2c(O)[nH]c3ccccc23)=Nc2ccccc21` here?
**A.** Its EC50 is “inactive”.

**Q.** With `CC1=C(CC(=O)O)c2cc(F)ccc2/C1=C/c1ccc(S(C)=O)cc1` (configuration not stated) as the compound, how does the EC50 read?
**A.** Its EC50 is “inactive”.

**Q.** And the pKi?
**A.** The pKi was 5.37.

**Q.** With `O=C1N=c2ccccc2=C1c1[nH]c(=S)[nH]c1O` as the compound, how does the EC50 read?
**A.** The EC50 was “inactive”.

**Q.** What about the pKi of the same compound?
**A.** The pKi was 6.19.

**Q.** Which EC50 does the source give for `O=Nc1c(-c2c(O)[nH]c3ccccc23)[nH]c2ccccc12` here?
**A.** Its EC50 is “inactive”.

**Q.** With `N#Cc1c(-c2ccc(Cl)cc2)c(C(=O)c2ccccc2)n(S(=O)(=O)c2ccc([N+](=O)[O-])cc2)c1N` as the compound, how does the EC50 read?
**A.** Its EC50 is “inactive”.

**Q.** And the pKi?
**A.** Its pKi is 6.27.

**Q.** For `O=C1Nc2c(Br)cccc2/C1=C1/Cc2ccccc2C1=O`, which EC50 is on record?
**A.** Its EC50 is “inactive”.

**Q.** With `O=C1Nc2ccccc2/C1=C1/Cc2ccccc2C1=O` as the compound, how does the EC50 read?
**A.** Its EC50 is “inactive”.

**Q.** Which EC50 does the source give for `CC(=O)Oc1ccccc1C(=O)O` here?
**A.** Its EC50 is “inactive”.

**Q.** How did the EC50 turn out when `O=Nc1c(-c2c(O)[nH]c3c(Cl)cccc23)[nH]c2ccccc12` was run?
**A.** The EC50 was “inactive”.

**Q.** What does the source list for `O=C(C#Cc1ccccc1)c1ccc([N+](=O)[O-])cc1`?
**A.** pEC50: 5.08; pKi: 6.12

**Q.** `COc1ccc(S(=O)(=O)n2c(N)c(C#N)c(-c3ccccc3)c2C(=O)c2ccc(Br)cc2)cc1` was tested. Which EC50 did it give?
**A.** The EC50 was “inactive”.

**Q.** For `O=C1N=c2ccccc2=C1c1[nH]c(=O)[nH]c1O`, which EC50 is on record?
**A.** The EC50 was “inactive”.

**Q.** What about the pKi of the same compound?
**A.** Its pKi is 5.97.

**Q.** How did the EC50 turn out when `O=C(C#Cc1ccccc1)c1ccccc1[N+](=O)[O-]` was run?
**A.** The EC50 was “inactive”.

**Q.** What does the source list for `O=C1C(c2c(O)[nH]c3c(Br)cccc23)=Nc2ccccc21`?
**A.** EC50: inactive; pKi: 5.60

**Q.** `COc1ccc(S(=O)(=O)n2c(N)c(C#N)c(-c3cncc(Br)c3)c2C(=O)c2ccccc2)cc1` was tested. Which EC50 did it give?
**A.** Its EC50 is “inactive”.

**Q.** And the pKi?
**A.** The pKi was 5.97.

**Q.** What does the source list for `O=Nc1c(-c2c(O)[nH]c3c(F)cccc23)[nH]c2ccccc12`?
**A.** EC50: inactive; pKi: 5.54

**Q.** Which EC50 does the source give for `COc1ccc(-c2c(C#N)c(N)n(S(C)(=O)=O)c2C(=O)c2ccccc2)cc1Br` here?
**A.** Its EC50 is “inactive”.

**Q.** Which EC50 does the source give for `O=Nc1c(-c2c(O)[nH]c3c(Br)cccc23)[nH]c2ccccc12` here?
**A.** The EC50 was “inactive”.

**Q.** How did the EC50 turn out when `CCCCS(=O)(=O)n1c(N)c(C#N)c(-c2cc(OC)c(OC)c(OC)c2)c1C(=O)c1ccccc1` was run?
**A.** Its EC50 is “inactive”.

**Q.** Which results are given for `COc1cc(-c2c(C#N)c(N)n(S(=O)(=O)c3c(C(C)C)cc(C(C)C)cc3C(C)C)c2C(=O)c2ccccc2)cc(OC)c1OC`?
**A.** EC50: inactive; pKi: 5.22

**Q.** `O=C1Nc2cccc(Br)c2/C1=C1/Cc2ccccc2C1=O` was tested. Which EC50 did it give?
**A.** Its EC50 is “inactive”.

**Q.** How did the EC50 turn out when `COc1ccc(S(=O)(=O)n2c(N)c(C#N)c(-c3cc(Br)c(OC)c(OC)c3)c2C(=O)c2ccccc2)cc1` was run?
**A.** Its EC50 is “inactive”.
